According to patent publication EP1020531A2, “Use of spore adhesion assays in fungicide screening” (priority 1999, dated 2000):
In brackets after ≈: the same amount, converted by molar mass.

tested on: Magnaporthe grisea; assay: not given; type: cell-based; conditions: inhibition of adhesion, YEG, 25°C, 6 hours

Row | Compound | EC50 (ppm)
1 | mancozeb | 0.115

same assay, conditions: statement in words

Row | Compound | inhibition of germination-associated adhesion
2 | mancozeb | potent inhibitors of germination-associated adhesion

tested on: Colletotrichum lagenarium spores; assay: Spore germination assay; type: cell-based; conditions: SDB with Tween 20 (40 ppm), 8 h

Row | Compound | Germination EC50 (ppm)
3 | COC(=O)Nc1nc2ccccc2[nH]1 [Carbendazim] | >10
4 | O=[N+]([O-])c1cc(C(F)(F)F)c(Cl)c([N+](=O)[O-])c1Nc1ncc(C(F)(F)F)cc1Cl [Fluazinam] | 0.004

same assay, conditions: statement in words

Row | Compound | inhibition of germination
5 | COC(=O)Nc1nc2ccccc2[nH]1 [Carbendazim] | did not inhibit germination

tested on: Aspergillus nidulans spores; assay: Spore adhesion assay in 96-well polystyrene microtiter plates; type: cell-based; conditions: statement in words
Description: (§1) For adhesion assays in microtiter plates, stock solutions of test compounds were prepared in DMSO then diluted in SDB such that the DMSO concentration after dilution was ≤2%. Two-fold serial dilutions of these test compound solutions were made in SDB (100 µl) in 96-well flat-bottomed microtiter plates. Spore suspension (100 µl at 2X10^5 spores/ml) was added to the wells, and the plates were incubated at 25°C for 5.5 hours. The medium containing unbound spores was removed by inverting and flicking the microtiter plate to remove as much liquid as possible.
Various fungicides were evaluated for their abilities to inhibit spore adhesion in 96-well flat-bottomed polystyrene microtiter plates. Adhesion assays were conducted as outlined in Example 2 for Botrytis except that the spore inoculum was prepared at 2X10^6 spores/ml, and plates were incubated at 37°C for 8 h.

Row | Compound | inhibition of spore adhesion
6 | O=[N+]([O-])c1cc(C(F)(F)F)c(Cl)c([N+](=O)[O-])c1Nc1ncc(C(F)(F)F)cc1Cl [Fluazinam] | highly potent inhibitors of spore adhesion

tested on: Pyricularia oryzae appressoria; assay: not given; conditions: Inoue et al., Pesticide Science 19, 145-152 (1987); cited from earlier work

Row | Compound | adhesion of Pyricularia oryzae appressoria to barley leaves
7 | Cn1c(=O)sc2cccc(Cl)c21 [chlobenthiazone] | inhibited adhesion
8 | Cc1cccc2sc3nncn3c12 [tricyclazole] | inhibited adhesion

tested on: Botrytis cinerea spores; assay: Spore adhesion assay in polystyrene counting vials (Coulter Counter); type: cell-based; conditions: Botrytis cinerea, 25°C, 5.5 h, read-out: Inhn. of Spore Adhesion (EC50, ppm) Counting vials
Description: (§2) Botrytis cinerea was grown at room temperature under fluorescent lights on potato dextrose agar (PDA), and subcultured every 14 days. To prepare spore suspensions, 20 ml sterile milliQ™ water was added to plates (10-14 days old) and the surface scraped gently with a sterile loop. The fluid was filtered through glass wool to remove mycelial fragments, then the spore density was adjusted to the desired concentration.
Various fungicides were evaluated for their abilities to inhibit germination-associated spore adhesion to polystyrene counting vials, polymethylpentene (Permanox®) chamber slides and 96-well flat-bottomed polystyrene microtiter plates, and for their effects on spore germination and mycelial growth (table below). Adhesion assays in chamber slides and germination assays were performed as in Example 1 with incubation at 25°C for 5.5 h. Adhesion assays in counting vials were conducted in 20 ml capacity polystyrene counting vials (VWR cat. no. 14310-640). Counting vials received 5 µl of DMSO (controls) or test compound dissolved in DMSO, followed by 500 µl of SDB. Aqueous spore suspension (500 µl) at 200,000 spores/ml was added, mixed gently and the vials or slides incubated at 25°C for 5.5 h. To determine the numbers of unbound spores 15 ml of counting fluid was added, vials were capped and inverted gently 5 times, then counted using a Coulter Counter®.

Row | Compound | EC50 [µg/mL]
9 | O=[N+]([O-])c1cc(C(F)(F)F)c(Cl)c([N+](=O)[O-])c1Nc1ncc(C(F)(F)F)cc1Cl [Fluazinam] | 0.041 (≈ 0.0882 µM)

tested on: Colletotrichum lagenarium spores; assay: Spore adhesion assay in 96-well polystyrene microtiter plates; type: cell-based; conditions: SDB with Tween 20 (40 ppm), 8 h
Description: as §1
Colletotrichum lagenarium was grown at 25°C in the dark on potato dextrose agar and subcultured every 7-14 days. To prepare spore suspensions, 15 ml sterile water was added to plates (7-10 days old) and the plates agitated gently on a gyrotary shaker for 10 min to release spores. The resulting spore suspension was filtered through glass wool and adjusted to the desired concentration. Spore adhesion assays and germination assays were conducted as outlined in Example 1 for Botrytis except that the SDB medium contained Tween™ 20 (40 ppm), and the spore inoculum was prepared at 5X10^5 spores/ml. Data in the table below show a time-dependent adhesion of spores to the slide which closely parallels the time-course for spore germination.
Various fungicides were evaluated for their abilities to inhibit spore adhesion in 96-well flat-bottomed polystyrene microtiter plates and Permanox® chamber slides, and for their effects on spore germination and mycelial growth. Assays were conducted as outlined in Example 2 for Botrytis except that the SDB medium contained Tween™ 20 (40 ppm), the spore inoculum was prepared at 5X10^5 spores/ml, and 8 h incubation was used for the adhesion and germination assays. For each compound tested, EC50 values for inhibition of adhesion to microtiter plates and chamber slides were similar. Spore adhesion was sensitive to all compounds which inhibited germination at low concentrations (<0.2 ppm).

Row | Compound | Inhn. of Adhesion (EC50, ppm) Microtiter plates [ppm]
10 | COC(=O)Nc1nc2ccccc2[nH]1 [Carbendazim] | 1.96
11 | O=[N+]([O-])c1cc(C(F)(F)F)c(Cl)c([N+](=O)[O-])c1Nc1ncc(C(F)(F)F)cc1Cl [Fluazinam] | <0.019

same assay, conditions: statement in words on adhesion to microtiter plates and chamber slides

Row | Compound | activity in the spore adhesion assay
12 | COC(=O)Nc1nc2ccccc2[nH]1 [Carbendazim] | little or no activity

tested on: Botrytis cinerea spores; assay: Spore germination assay (microscopic examination); type: cell-based; conditions: Botrytis cinerea; 25°C, 5.5 h; read-out: Inhn. of Germination EC50 (ppm)

Row | Compound | EC50 [µg/mL]
13 | COC(=O)Nc1nc2ccccc2[nH]1 [Carbendazim] | > 25
14 | O=[N+]([O-])c1cc(C(F)(F)F)c(Cl)c([N+](=O)[O-])c1Nc1ncc(C(F)(F)F)cc1Cl [Fluazinam] | 0.028 (≈ 0.0602 µM)

tested on: Botrytis; assay: Mycelial growth inhibition, poison agar assay; conditions: Botrytis, 72 h, read-out: Mycelial Growth Inhn. EC50 (ppm)
Description: Inhibition of mycelial growth was evaluated in poison agar assays. A 4-fold dilution series of each fungicide to be tested was prepared in DMSO and 125 µl of each dilution was added to 25 ml of molten malt extract agar (20 g malt extract, 20 g glucose, 1 g peptone and 20 g agar per liter). The medium containing test compound was poured immediately into 9 cm diameter petri dishes. Two replicate plates were used for each treatment. Each plate was inoculated with a 7 mm diameter plug taken from the growing edge of a Botrytis culture on PDA. Colony diameters were measured after growth for 3 days in the dark at 25°C. EC50 values were determined from dose-response curves.

Row | Compound | EC50 [µg/mL]
15 | COC(=O)Nc1nc2ccccc2[nH]1 [Carbendazim] | 0.045 (≈ 0.235 µM)
16 | O=[N+]([O-])c1cc(C(F)(F)F)c(Cl)c([N+](=O)[O-])c1Nc1ncc(C(F)(F)F)cc1Cl [Fluazinam] | 0.033 (≈ 0.071 µM)

tested on: Botrytis cinerea spores; assay: Spore adhesion assay in 96-well polystyrene microtiter plates (sulforhodamine B); type: cell-based; conditions: Botrytis cinerea, 25°C, 5.5 hours, read-out: Inhn. of Spore Adhesion (EC50, ppm) Microtiter plates
Description: as §2, §1

Row | Compound | EC50 [µg/mL]
17 | COC(=O)Nc1nc2ccccc2[nH]1 [Carbendazim] | > 10
18 | O=[N+]([O-])c1cc(C(F)(F)F)c(Cl)c([N+](=O)[O-])c1Nc1ncc(C(F)(F)F)cc1Cl [Fluazinam] | 0.051 (≈ 0.11 µM)

tested on: Colletotrichum lagenarium; assay: Mycelial growth inhibition, poison agar assay; type: cell-based; conditions: not given

Row | Compound | Mycelial Growth Inhn. EC50 (ppm)
19 | COC(=O)Nc1nc2ccccc2[nH]1 [Carbendazim] | 0.060
20 | O=[N+]([O-])c1cc(C(F)(F)F)c(Cl)c([N+](=O)[O-])c1Nc1ncc(C(F)(F)F)cc1Cl [Fluazinam] | 0.017

tested on: Colletotrichum lagenarium spores; assay: not given; type: cell-based; conditions: SDB with Tween 20 (40 ppm), 8 h

Row | Compound | Inhn. of Adhesion (EC50, ppm) Chamber slides [ppm]
21 | COC(=O)Nc1nc2ccccc2[nH]1 [Carbendazim] | >10
22 | O=[N+]([O-])c1cc(C(F)(F)F)c(Cl)c([N+](=O)[O-])c1Nc1ncc(C(F)(F)F)cc1Cl [Fluazinam] | 0.007

tested on: Puccinia recondita; assay: Germination-associated spore adhesion assay in microtiter plates (sulforhodamine B); type: cell-based; conditions: inhibition of adhesion, 0.05% Tween 20, 19°C, 4 hours

Row | Compound | EC50 (ppm)
23 | O=[N+]([O-])c1cc(C(F)(F)F)c(Cl)c([N+](=O)[O-])c1Nc1ncc(C(F)(F)F)cc1Cl [Fluazinam] | 0.365
24 | mancozeb | 0.56

same assay, conditions: statement in words

Row | Compound | inhibition of germination-associated adhesion
25 | O=[N+]([O-])c1cc(C(F)(F)F)c(Cl)c([N+](=O)[O-])c1Nc1ncc(C(F)(F)F)cc1Cl [Fluazinam] | inhibited germination-associated adhesion
26 | mancozeb | inhibited germination-associated adhesion

tested on: Botrytis cinerea spores; assay: microbe, parasite or virus in culture; type: cell-based; conditions: Botrytis cinerea, 5.5 h, read-out: Inhn. of Spore Adhesion (EC50, ppm) Chamber Slides

Row | Compound | EC50 [µg/mL]
27 | O=[N+]([O-])c1cc(C(F)(F)F)c(Cl)c([N+](=O)[O-])c1Nc1ncc(C(F)(F)F)cc1Cl [Fluazinam] | 0.071 (≈ 0.153 µM)
